Laboratory results published in patent publication US11673933B2, “Method for using insulin degludec for the improvement of glycemic control and reduction of acute and long-term diabetes complications” (Novo Nordisk A/S, priority 2016, dated 2023).

Legend:
[1] = system: adult human subjects with type 2 diabetes at high risk for cardiovascular events; test: Example 1 cardiovascular outcomes trial (DEVOTE), insulin degludec vs insulin glargine: SMPG and blood pressure variability; type: in vivo
Experimental: (§1) A long-term, multi-centre, multi-national, randomised, double-blind, parallel-group, active comparator-controlled trial with 7637 human subjects was carried out with treatment that would continue until at least 633 positively adjudicated primary cardiovascular events were accrued. This trial concerned incidence of cardiovascular events in adult human subjects with type 2 diabetes that were at high risk for cardiovascular events, including such subjects with existing cardiovascular disease. The primary objective of this trial was to confirm the cardiovascular safety of insulin degludec compared to that of insulin glargine. The secondary objective was to assess efficacy of insulin degludec on markers of glycaemic control and to assess safety on other parameters in subjects with type 2 diabetes that were at high risk for cardiovascular events.
Subjects were randomised 1:1 in a double-blinded manner to receive blinded insulin degludec or blinded insulin glargine, each added to standard of care. […] For subjects receiving premixed/biphasic insulin OD, the basal component was calculated and transferred unit-to-unit to investigational product OD. The bolus insulin component was calculated and transferred unit-to-unit to bolus insulin and given at the most appropriate meal at the investigator's discretion. For subjects receiving premixed/biphasic insulin twice daily (or more), the total basal component was calculated, reduced by 20-30% and transferred to investigational product OD; the bolus component was to be calculated and transferred to insulin aspart and dosed with the most appropriate meals at the investigator's discretion. […]
Subjects adjusted their basal insulin dose weekly, aiming for a pre-breakfast (fasting) SMPG value of 71-90 mg/dL (4.0-5.0 mmol/L) by using the algorithm in Table 6. The basal dose was adjusted based on the lowest of three pre-breakfast SMPG values, preferably measured two days prior to dose adjustment and on the day of the dose adjustment. […]

[2] = system: individuals with type 2 diabetes and established cardiovascular risk (MACE); test: CV risk model based on the DEVOTE trial: MACE hazard ratio IDeg/IGlar by CV risk score and subgroup; type: in vivo, human
Experimental: as §1
The results of this trial may be presented herein as a number or fraction of subjects experiencing an event. Alternatively, the results of this trial may be presented with hazard ratios estimated in a Cox proportional hazard model, which is the standard statistical model used for estimating time to an event. The term “hazard ratio” (also referred to as “HR”) as used herein means the instantaneous risk ratio of experiencing an event when administered insulin degludec compared to insulin glargine which are the two treatments in this trial. An upper limit of the 95% confidence interval (CI) for the HR of less than 1.00 means that the estimated treatment ratio between insulin degludec and insulin glargine with respect to the event of interests is statistically significant in favour of insulin degludec on a 5% significance level. A 5% significance level is the standard level for investigating significance in clinical trials.
Based on the DEVOTE trial, a cardiovascular (CV) risk score has been developed for individuals with established cardiovascular risk. This risk score was developed using available medical history, baseline information and cardiovascular events occurring during the trial. […] The variables are listed in descending order according to their impact on the overall risk of major adverse cardiovascular events (MACE), here consisting of cardiovascular death, non-fatal myocardial infarction, or non-fatal stroke. The combination of these variables yields an algorithm that can be used to determine the risk of future MACEs and to determine the benefit of being treated with IDeg compared to IGlar.
The CV risk score and estimated MACE hazard ratio for CV risk scores by quartiles based on number of events are presented in FIG. 1. […] This benefit is seen regardless of which of the individual predictors contribute to the high score.
For example, subjects with a BMI ≥30 kg/m^2 and diastolic blood pressure ≥80 mmHg, and subjects with a diastolic blood pressure ≥80 mmHg who were treated with statins would have a benefit with IDeg compared to IGlar in terms of risk of MACE (Table 25).

[3] = system: human subjects with type 2 diabetes inadequately controlled with basal insulin and metformin; conditions: in vivo
Experimental: (§2) A 26-week randomised, parallel two-arm, double-blind, multi-centre, multinational, treat-to-target trial in 413 human subjects with type 2 diabetes inadequately controlled with basal insulin and metformin with or without SU or glinides was carried out comparing the efficacy and safety of insulin degludec+liraglutide (Xultophy®, IDegLira) once daily with insulin degludec (Tresiba®, IDeg) once daily both added on to metformin. […] The secondary objective was to compare the overall efficacy and safety parameters of IDegLira and IDeg after 26 weeks of treatment. All trial endpoints were collected and assessed throughout the entire duration of the trial.
(§3) Eligible subjects were randomised 1:1 to either once daily IDegLira or once daily IDeg, both in combination with metformin. […] For each subject, the duration of the trial was to be approximately 29 weeks: up to 2 weeks between screening and first treatment, 26 weeks of treatment and at least 1 week of wash-out at the end of the trial.
(§4) The IDegLira dosing unit is defined as a dose step. One (1) IDegLira dose step consists of 1 unit insulin degludec and 0.036 mg liraglutide. Treatment with IDegLira was initiated at 16 dose steps containing 16 units insulin degludec and 0.6 mg liraglutide. Adjustment of the IDegLira dose was performed twice weekly based on the mean of 3 preceding daily fasting SMPG values on 3 consecutive days. Adjustments occurred in 2 dose steps aiming at a fasting glycaemic target of 4.0-5.0 mmol/L (72-90 mg/dL). The maximum allowed dose was 50 dose steps (50 units IDeg/1.8 mg liraglutide). IDeg treatment was initiated with 16 units, and titrated twice weekly to the fasting glycaemic target of 4.0-5.0 mmol/L (72-90 mg/dL) based on the mean fasting SMPG from 3 proceeding measurements as described for IDegLira. The maximum allowed dose was 50 units.
(§5) Subjects received IDegLira or IDeg by subcutaneous administration in addition to metformin. IDegLira or IDeg was injected subcutaneously in the thigh, upper arm (deltoid region) or abdomen once daily preferably at the same time every day. The injection area chosen were to remain unchanged throughout the trial, but rotation within the area was recommended.

[4] = system: human subjects with type 2 diabetes inadequately controlled with basal insulin and metformin; test: Example 4: 26-week double-blind trial, IDegLira vs IDeg, both added to metformin
Experimental: as §2, §3, §4, §5

N^εB29-(N^α-(HOOC(CH2)14CO)-γ-Glu) desB30 human insulin [IDeg]
Systolic Blood Pressure variability, Rate [1]: 0.94 | 8PP SMPG - Within-day variability, Rate ([1]; relative fluctuation of 8-point profile, log scale ANOVA): 0.98 | Pre-breakfast SMPG - between-day variability, Rate ([1]; variances analysed on log scale, ANOVA): 0.90 | HR (MACE, IDeg/IGlar) ([2]; CV risk score High): 1.04 | HR (MACE, IDeg/IGlar) ([2]; CV risk score Low): 1.02 | HR (MACE, IDeg/IGlar) ([2]; CV risk score Moderate): 0.89 | HR (MACE, IDeg/IGlar) ([2]; CV risk score Very High): 0.67 | hazard ratio IDeg/IGlar (risk of MACE) ([2]; patients who have a high CV risk score): < 1 | Estimate (risk of MACE, IDeg compared to IGlar) ([2]; subgroup: Age 65-75 years AND systolic blood pressure < 140 mmHg): 0.70 | Estimate (risk of MACE, IDeg compared to IGlar) ([2]; subgroup: Age < 65 years AND diastolic blood pressure ≥ 80 mmHg): 0.64 | Estimate (risk of MACE, IDeg compared to IGlar) ([2]; subgroup: Age < 65 years AND treated with statins): 0.75 | Estimate (risk of MACE, IDeg compared to IGlar) ([2]; subgroup: BMI ≥ 30 kg/m^2 AND diastolic blood pressure ≥ 80 mmHg): 0.68 | Estimate (risk of MACE, IDeg compared to IGlar) ([2]; subgroup: Diastolic blood pressure < 90 mmHg AND HDL ≥ 1.0 mmol/L): 0.80 | Estimate (risk of MACE, IDeg compared to IGlar) ([2]; subgroup: Diastolic blood pressure ≥ 80 mmHg AND treated with statins): 0.73 | Estimate (risk of MACE, IDeg compared to IGlar) ([2]; subgroup: Diastolic blood pressure ≥ 80 mmHg AND triglycerides > 1.7 mmol/L): 0.69 | Estimate (risk of MACE, IDeg compared to IGlar) ([2]; subgroup: Established CV risk AND HDL ≥ 1.0 mmol/L): 0.78 | Estimate (risk of MACE, IDeg compared to IGlar) ([2]; subgroup: Established CV risk AND diastolic blood pressure ≥ 80 mmHg): 0.76 | Estimate (risk of MACE, IDeg compared to IGlar) ([2]; subgroup: Established CV risk AND pulse ≥ 70 bpm): 0.80 | Estimate (risk of MACE, IDeg compared to IGlar) ([2]; subgroup: Height <170 cm AND treated with statins): 0.75 | Estimate (risk of MACE, IDeg compared to IGlar) ([2]; subgroup: Non-White AND diastolic blood pressure < 90 mmHg): 0.64 | Estimate (risk of MACE, IDeg compared to IGlar) ([2]; subgroup: Not Hispanic or Latino AND Non-White): 0.64 | Estimate (risk of MACE, IDeg compared to IGlar) ([2]; subgroup: Not Hispanic or Latino AND triglycerides > 1.7 mmol/L): 0.79 | Estimate (risk of MACE, IDeg compared to IGlar) ([2]; subgroup: Previous smoker AND age < 65 years): 0.73 | Estimate (risk of MACE, IDeg compared to IGlar) ([2]; subgroup: Previous smoker AND cholesterol ≥ 3 mmol/L): 0.79 | Estimate (risk of MACE, IDeg compared to IGlar) ([2]; subgroup: Previous smoker AND diastolic blood pressure ≥ 80 mmHg): 0.66 | Estimate (risk of MACE, IDeg compared to IGlar) ([2]; subgroup: Previous smoker AND treated with statins): 0.79 | Estimate (risk of MACE, IDeg compared to IGlar) ([2]; subgroup: Previous smoker AND triglycerides > 1.7 mmol/L): 0.73 | Estimate (risk of MACE, IDeg compared to IGlar) ([2]; subgroup: Pulse ≥ 70 bpm AND diastolic blood pressure ≥ 80 mmHg): 0.74 | Estimate (risk of MACE, IDeg compared to IGlar) ([2]; subgroup: Pulse ≥ 70 bpm AND triglycerides > 1.7 mmol/L): 0.76 | Estimate (risk of MACE, IDeg compared to IGlar) ([2]; subgroup: Pulse ≥ 70 mmHg AND treated with statins): 0.72 | Estimate (risk of MACE, IDeg compared to IGlar) ([2]; subgroup: Systolic blood pressure <140 mmHg AND HDL ≥ 1.0 mmol/L): 0.73 | Estimate (risk of MACE, IDeg compared to IGlar) ([2]; subgroup: Triglycerides > 1.7 mmol/L AND HDL ≥ 1.0 mmol/L): 0.69 | Estimate (risk of MACE, IDeg compared to IGlar) ([2]; subgroup: Triglycerides > 1.7 mmol/L AND treated with statins): 0.78 | Adverse event and tolerability profiles [3]: consistent with previous findings | ΔHeart rate [3]: −0.6 bpm | Free fatty acids ([4]; Baseline): 0.5 mmol/L | HDL cholesterol ([4]; Baseline): 1.2 mmol/L | LDL cholesterol ([4]; Baseline): 2.4 mmol/L | Total cholesterol ([4]; Baseline): 4.6 mmol/L | Triglycerides ([4]; Baseline): 1.8 mmol/L | VLDL cholesterol ([4]; Baseline): 0.8 mmol/L | Free fatty acids ([4]; End of trial (26 weeks)): 0.4 mmol/L | HDL cholesterol ([4]; End of trial (26 weeks)): 1.2 mmol/L | LDL cholesterol ([4]; End of trial (26 weeks)): 2.4 mmol/L | Total cholesterol ([4]; End of trial (26 weeks)): 4.5 mmol/L | Triglycerides ([4]; End of trial (26 weeks)): 1.6 mmol/L | VLDL cholesterol ([4]; End of trial (26 weeks)): 0.7 mmol/L | ΔDiastolic blood pressure ([4]; change from baseline, 26 weeks): −0.7 mmHG | ΔSystolic blood pressure ([4]; change from baseline, 26 weeks): −1.7 mmHG
